Values of other authors, collected in article PMC10401651, “Characterization of Uranyl (UO2^2+) Ion Binding to Amyloid Beta (Aβ) Peptides: Effects on Aβ Structure and Aggregation” (ACS Chemical Neuroscience, 2023).

Target: T1, Aβ42 oligomers (Homo sapiens, UniProt P05067)
T1 construct: Synthetic lyophilized wt Aβ (1–42) peptides, abbreviated as Aβ42; purchased JPT Peptide Technologies (Germany); host or cells: synthetic peptide
Set-up: method as in PMID 36849796
Settings: 0.05% SDS; cited from earlier work

T1 sequence (P05067 672-713 limits assumed): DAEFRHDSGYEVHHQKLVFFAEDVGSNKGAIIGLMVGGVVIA

## [Ni+2] [Ni(II) ions]
  concentration required for full disruption of homogeneous AβO0.05%SDS oligomers: 500 mM
